The record followed here is patent publication US20260226089A1, “METHOD FOR CONTROLLING IMPURITIES IN L-ARABINOSE AND USE THEREOF” (THOMSON BIOTECH (XIAMEN) PTE. LTD., priority 2023, published 2026).

One test concerns constipation model rats. As to the kind of experiment: Therapeutic effect on constipation model rats (modeling with compound diphenoxylate). The format is in vivo, rat. Particulars: n = 8; for Time for first dark stools min: first administration with 5% activated carbon; for Time for first dark stools min / Small intestine propulsion rate %: x ± sd; for Small intestine propulsion rate %: gavage once daily; for Water content of stools %: stools collected on day 7, x ± sd. From the text: • Modeling procedure: modeling with compound diphenoxylate. • Experimental drugs and reagents: activated carbon (5%); a 0.4 g/mL aqueous solution prepared from an arabinose drug. • Positive control: PEG (Shutaiqing). SPF-grade rats (Zhejiang Vital River Laboratory Animal Technology Co., Ltd.).
Except for the normal group, the successfully modeled rats were randomly divided into 5 groups, including a model group, a low dose group, a medium dose group, a high dose group, and a positive control group, 8 animals per group. Each rat was housed individually in separate cages, and operations were conducted fixedly at 10:00-12:00 every day. The normal group and the model group were gavaged with 0.2 mL of purified water. The positive control group was gavaged with 0.133 mL of a mosapride solution, and the low dose group, the medium dose group, and the high dose group were gavaged with 0.01 mL, 0.02 mL, and 0.04 mL of the test drug, respectively, with the volume adjusted to 0.2 mL using purified water. The rats had free access to food and water. The administration was performed for 7 consecutive days (times).
For the first administration, the drug with 5% activated carbon (based on 0.2 g×5%) added was intragastrically administered to the treatment group, and 0.2 mL of purified water with activated carbon added was intragastrically administered to the normal group and the model group. The time for the first dark stools was recorded.
The rats were intragastrically administered once daily. On day 7 after the continuous administration, the stools were collected using a sterile centrifuge tube and stored at −100° C. The collected stools were dried at 105° C. to a constant weight, and the water content of the stools was calculated according to the formula: water content of stools=(1−mass after drying/mass before drying)×100%.
The rats were intragastrically administered once daily for 14 days and then fasted for 12 h. 1 h after the last administration, each group of animals was gavaged with 0.15 mL of 5% activated carbon, and 30 min later, the rats were anesthetized with an intraperitoneal injection of 10% chloral hydrate. After anesthesia was completed, the abdominal operation was immediately performed. The intestinal canal from pylorus to ileocecal junction was cut off and placed on a glass plate. The length of the intestinal tract traversed by the ink and the total length of the intestinal tract were measured. The intestinal propulsion rate was the ratio of the two. The total length from pylorus to ileocecal junction and the distance from pylorus to the front of the carbon ink were measured, and the carbon ink propulsion percentage was calculated. Intestinal propulsion rate=distance from front of carbon ink to pylorus/full length of small intestine×100%.

Another test has as its system SPF-grade rats. As to the kind of experiment: Rat bowel preparation experiment (bowel cleansing effect). The format is in vivo. From the text: Experimental materials: L-arabinose, selected from the L-arabinose crystallization sample with batch No. 1221 in the example, prepared into a 0.4 g/mL solution with purified water; PEG (Shutaiqing), prepared into a 0.521 g/mL PEG solution with purified water; SPF-grade rats (Zhejiang Vital River Laboratory Animal Technology Co., Ltd.). • 5.1. Experimental animals and feeding thereof: SPF (specific pathogen free)-grade rats (200±10 g), 6 weeks old; normal feed was D12450-B feed: 67.35 wt % carbohydrates, 19.2 wt % crude protein, and 4.3 wt % fat. The temperature of the room was kept at 24° C. to 26° C. with humidity at 40% to 60%. • 5.2. Experimental method and procedures:
The SPF-grade rats were randomly divided into a blank control group, a positive control group, and a treatment group, 10 animals per group, half being male and half female. Administration method: Animals in each group were fasted (water was accessible) starting at 22:00 the night before experiment, were each given ½ the calculated amount of drug by intragastrical administration at 7:00 and 9:00 on the day of experiment, were each given 2.0 mL of purified water at 12:00 and 13:00, and were dissected 3.5 h after the last administration.

Turning to `CCOc1cc(N)c(Cl)cc1C(=O)NCC1CN(Cc2ccc(F)cc2)CCO1` (stereo not drawn) [Positive control, reference compound], in the test with constipation model rats (Positive control 2.0 mg kg/d), the “Time for first dark stools min” value is reported as 67 ± 8.8 min, the “Small intestine propulsion rate %” value was 82% ± 4.4 and the “Water content of stools %” value is reported as 57% ± 0.9.
For the compound `O=C[C@H](O)[C@@H](O)[C@@H](O)CO` [L-arabinose, L-Arabinose], the “Dosage relative to that administered to the positive control group to achieve the same effect” value in the test with SPF-grade rats (9 g/kg L-arabinose vs 21.9 g/kg PEG) amounted to 41%. The “Stools observed before the dissection” value with SPF-grade rats (L-arabinose batch No. 1221, 9 g/kg (22.5 mL/kg) intragastric in 2 doses, fasted rats) is “Watery and loose stools”. Further, the “Residue in the rectum and colon after the dissection” value with SPF-grade rats (L-arabinose batch No. 1221, 9 g/kg intragastric in 2 doses, dissected 3.5 h after last administration) is “no residue was left in the rectum and colon”. Besides, in the test with constipation model rats (High dose 0.80 g kg/d), the “Time for first dark stools min” value amounted to 63 ± 5.7 min, the “Small intestine propulsion rate %” value is 83% ± 2.8 and the “Water content of stools %” value is 61% ± 2.4. Further, in the test with constipation model rats (Low dose 0.20 g kg/d), the “Time for first dark stools min” value is 76 ± 8.5 min, the “Small intestine propulsion rate %” value is 75% ± 3.1 and the “Water content of stools %” value is recorded as 54% ± 1.8. In the test on constipation model rats (Medium dose 0.40 g kg/d), the “Time for first dark stools min” value is 64 ± 6.2 min, the “Small intestine propulsion rate %” value is on record as 80% ± 2.7 and the “Water content of stools %” value was 59% ± 2.7.
